Measured values published in patent US6828328B1, “Analgesic combination of muscarinic agonists” (UCB s.A., priority 2002, dated 2004).
Where “and” joins values, the source holds several entries; their conditions need not be identical. Equal entries are not always repeated.

Legend:
CD-1 female mice [1] = experiment: mouse tail-flick test (antinociception, %MPE); type: in vivo; details: for antinociception (%MPE): at 30 min
Source text: Its antinociception (analgesia) in vivo had been investigated using the mouse tail flick test. The mouse tail-flick test is a well-known experimental model to verify the analgesic activity of potential moderate and severe pain relievers including muscarinic agonists (Chau, T. T: Analgesic Testing in Animal Models. Pharmacological Methods in the Control of Inflammation. 195-212. 1989, Alan R. Liss. Inc.). […] Other possible muscarinic agonist activities, such as tremor, sedation, salivation, and hypothermia were observed simultaneously.
(§1) Experiments were carried out using a commercially available tail-flick analgesia meter (model TF-6 analgesia meter, Emdie Instrument Company, Maidens, Va., USA). […] A 10-second cutoff time was used as the maximum latency to avoid tissue damage.
(§2) Control animals received the corresponding vehicle(s) by the same route of administration.
The percentage of maximum possible effect (%MPE) was calculated as follows:
%MPE=[(postdrug latency−predrug latency)÷(cutoff time−predrug latency)]×100%.
(§3) All results were expressed as mean±SEM. […] This comparison was carried out at the peak of antinociception (30 minutes). Student's T test (one tailed analysis)(Microsoft Excel 97, Microsoft Corporation, Redmond, Wash., USA) was used to analyse the statistical significance between the two groups. The value of p<0.05 was considered as statistically significant.
as §1, §2
as §3, with “minutes). One tailed” for “minutes).”, “(Microsoft” for “(one tailed analysis)(Microsoft”, “[…],” for “Redmond,”, “analysis” for “analyse”

CD-1 female mice [2] = experiment: observation of muscarinic side effects (tremor, sedation, salivation); type: in vivo, mouse; details: at its ED50 dose
Method: (§4) Observations of tremor, sedation, and salivation were made by close visual inspection of the mice at 5, 15, 30 and 60 minutes after injection of 4-s-[4-propylsulfanyl)-1,2,5-thiadiazol-3-yl]-1-azatricyclo[3.3.1.1<3,7>]decane hydrochloride. Tremor and sedation were scored as +(indicated visible tremor or sedation) or −(indicated non-visible tremor or sedation). Salivation was scored according to the following scale: 0, no sign of saliva within animal's mouth; 1, evidence of saliva in animal's mouth, but not on animal's muzzle; and 2, evidence of saliva in animal's mouth and on muzzle. No other muscarinic receptor mediated activities were observed.
as §4, with “4-s-[4-(propylsulfanyl)-1,2,5-thiadiazol-3-yl]-1-azatricyclo[3.3.1.1<3,7>]decane” for “4-s-[4-propylsulfanyl)-1,2,5-thiadiazol-3-yl]-1-azatricyclo[3.3.1.1<3,7>]decane”

## CC(C)Cc1ccc(C(C)C(=O)O)cc1 (stereo not drawn) [ibuprofen]
CD-1 female mice [1]; ibuprofen 50 mg/kg ip alone
  antinociceptive effect: without antinociceptive effect

## CC(=O)Nc1ccc(O)cc1 [acetaminophen]
CD-1 female mice [1]; acetaminophen 60 mg/kg ip alone
  antinociceptive effect: without antinociceptive effect

## CN1CC[C@]23c4c5ccc(O)c4O[C@H]2[C@@H](O)C=C[C@H]3[C@H]1C5 [morphine]
CD-1 female mice [1]; morphine 3 mg/kg sc alone
  antinociception (%MPE): 13% and 25%
CD-1 female mice [1]; morphine 5.0 mg/kg sc alone
  antinociception (%MPE): 35%

## CS(=O)(=O)Nc1ccc([N+](=O)[O-])cc1OC1CCCCC1 [NS-398]
CD-1 female mice [1]; NS-398 0.05 mg/kg ip alone
  antinociceptive effect: without antinociceptive effect

## CCCSc1nsnc1[C@H]1[C@@H]2C[C@@H]3C[C@H]1CN(C3)C2.Cl [4-s-[4-(propylsulfanyl)-1,2,5-thiadiazol-3-yl]-1-azatricyclo[3.3.1.1<3,7>]decane hydrochloride]
CD-1 female mice [2]
  incidence of muscarinic side effects: low incidence
CD-1 female mice [1]; 0.03 mg/kg sc alone, hydrochloride
  antinociception (%MPE): 19%
CD-1 female mice [1]; 0.05 mg/kg sc alone
  antinociception (%MPE): 38%
CD-1 female mice [1]; mouse tail-flick test, more potent than morphine
  antinociceptive potency relative to morphine: 300-1000 fold
